Results reported in patent US9475817B2 (BRISTOL-MYERS SQUIBB COMPANY, priority 2012, dated 2016).
pIC50: −log10 of the molar value. Structures can show the parent of a compound that is named as a salt.

Assays:
CK1ε = CK1ε (Homo sapiens (Human), UniProt P49674); assay: CK1ε kinase assay (Caliper LabChip, fluoresceinated peptide substrate); format: biochemical; conditions: 200 pM CK1ε, 50 μM ATP, 1.5 μM peptide substrate, 22 hours room temperature
Description: (§1) CK1ε and CK1δ Kinase Assays
(§2) The kinase assay was performed in V-bottom 384-well plates. […] The reaction was incubated at room temperature for 22 hours and terminated by adding 45 μl of 35 mM EDTA to each sample. […] Compounds were dissolved at 10 mM in dimethylsulfoxide (DMSO) and evaluated at eleven concentrations. IC50 values were derived by non-linear regression analysis.

CK1δ = CK1δ (Homo sapiens (Human), UniProt P48730); assay: CK1δ kinase assay (Caliper LabChip, fluoresceinated peptide substrate); format: biochemical; conditions: 200 pM CK1δ, 50 μM ATP, 1.5 μM peptide substrate, 22 hours room temperature
Description: as §1, §2

CK1δ, sequence (P48730 whole entry): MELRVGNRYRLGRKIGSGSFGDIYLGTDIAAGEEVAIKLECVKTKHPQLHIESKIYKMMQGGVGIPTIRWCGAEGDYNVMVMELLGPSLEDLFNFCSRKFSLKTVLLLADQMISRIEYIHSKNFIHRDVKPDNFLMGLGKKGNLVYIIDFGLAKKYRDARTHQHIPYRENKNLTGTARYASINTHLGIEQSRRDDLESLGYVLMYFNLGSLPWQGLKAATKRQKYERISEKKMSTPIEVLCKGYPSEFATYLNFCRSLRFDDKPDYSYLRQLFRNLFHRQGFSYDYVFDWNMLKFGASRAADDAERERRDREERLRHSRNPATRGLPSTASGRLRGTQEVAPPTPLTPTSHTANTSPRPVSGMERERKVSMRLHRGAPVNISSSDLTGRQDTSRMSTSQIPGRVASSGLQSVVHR
CK1ε, sequence (P49674 whole entry): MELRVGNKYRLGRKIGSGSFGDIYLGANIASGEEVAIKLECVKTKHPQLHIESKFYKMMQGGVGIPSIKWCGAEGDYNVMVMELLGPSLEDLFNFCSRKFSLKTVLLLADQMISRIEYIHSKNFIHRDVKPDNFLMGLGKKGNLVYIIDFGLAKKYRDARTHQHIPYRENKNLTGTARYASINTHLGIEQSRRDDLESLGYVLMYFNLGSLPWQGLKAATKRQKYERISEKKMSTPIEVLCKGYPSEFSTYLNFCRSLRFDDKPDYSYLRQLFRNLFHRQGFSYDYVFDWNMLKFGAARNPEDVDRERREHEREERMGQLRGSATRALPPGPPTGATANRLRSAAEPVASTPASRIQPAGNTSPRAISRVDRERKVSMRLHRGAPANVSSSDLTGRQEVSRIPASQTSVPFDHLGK

| SMILES | pIC50 (CK1ε) | pIC50 (CK1δ) |
| --- | --- | --- |
| Cn1cc(-c2ccc3nc(NC(=O)c4ccnc(N5CCOCC5)c4)cn3n2)c(-c2ccc(F)cc2)n1 [Compound 69, N-(6-(3-(4-fluorophenyl)-1-methyl-1H-pyrazol-4-yl)imidazo[1,2-b]pyridazin-2-yl)-2-morpholinoisonicotinamide] | 8.32 | 8.64 |
| Cn1cc(-c2ccc3nc(NC(=O)c4cc(C(C)(C)C)ncn4)cn3n2)c(-c2ccc(F)cc2)n1 [Compound 32, 6-(tert-butyl)-N-(6-(3-(4-fluorophenyl)-1-methyl-1H-pyrazol-4-yl)imidazo[1,2-b]pyridazin-2-yl)pyrimidine-4-carboxamide] | 7.01 | 8.00 |
| Cn1cc(-c2ccc3nc(NC(=O)c4csc(Br)n4)cn3n2)c(-c2ccc(F)cc2)n1 [Compound 13, 2-bromo-N-(6-(3-(4-fluorophenyl)-1-methyl-1H-pyrazol-4-yl)imidazo[1,2-b]pyridazin-2-yl)thiazole-4-carboxamide] | 7.64 | 8.59 |
| Cn1nc(-c2ccc(F)cc2)c(-c2ccc3nc(NC(=O)c4ccnc(N5CCOCC5)c4)cn3n2)c1N1CCN(C(=O)CC(F)(F)F)CC1 [Compound 138, N-(6-(3-(4-Fluorophenyl)-1-methyl-5-(4-(3,3,3-trifluoropropanoyl)piperazin-1-yl)-1H-pyrazol-4-yl)imidazo[1,2-b]pyridazin-2-yl)-2-morpholinoisonicotinamide] | 8.03 | 8.80 |
| Cn1cc(-c2ccc3nc(NC(=O)c4ccc(CO)cc4F)cn3n2)c(-c2ccc(F)cc2)n1 [Compound 41, 2-fluoro-N-(6-(3-(4-fluorophenyl)-1-methyl-1H-pyrazol-4-yl)imidazo[1,2-b]pyridazin-2-yl)-4-(hydroxymethyl)benzamide] | 7.94 | 8.40 |
| Cn1cc(-c2ccc3nc(NC(=O)c4ccc(Cl)cc4F)cn3n2)c(-c2ccc(F)cc2)n1 [Compound 24, 4-chloro-2-fluoro-N-(6-(3-(4-fluorophenyl)-1-methyl-1H-pyrazol-4-yl)imidazo[1,2-b]pyridazin-2-yl)benzamide] | 7.79 | 8.20 |

Continued by rising pIC50 (CK1ε), values first:

| pIC50 (CK1ε) | pIC50 (CK1δ) | SMILES |
| --- | --- | --- |
| 6.86 | 7.27 | Cc1c(NC(=O)c2ccccc2)nc2ccc(-c3cn(C)nc3-c3ccc(F)cc3)nn12 [Compound 195, N-(6-(3-(4-Fluorophenyl)-1-methyl-1H-pyrazol-4-yl)-3-methylimidazo[1,2-b]pyridazin-2-yl)benzamide, 2 TFA] |
| 7.15 | 8.48 | Cn1cc(-c2ccc3nc(NC(=O)c4ncc(-c5ccccn5)s4)cn3n2)c(-c2ccc(F)cc2)n1 [Compound 82, N-(6-(3-(4-fluorophenyl)-1-methyl-1H-pyrazol-4-yl)imidazo[1,2-b]pyridazin-2-yl)-5-(pyridin-2-yl)thiazole-2-carboxamide] |
| 7.32 | 7.80 | Cn1cc(-c2ccc3nc(Nc4ncccn4)cn3n2)c(-c2ccc(F)cc2)n1 [Compound 185, 6-(3-(4-Fluorophenyl)-1-methyl-1H-pyrazol-4-yl)-N-(pyrimidin-2-yl)imidazo[1,2-b]pyridazin-2-amine] |
| 7.54 | 8.03 | Cn1cc(-c2ccc3nc(NC(=O)c4cc(O)ncn4)cn3n2)c(-c2ccc(F)cc2)n1 [Compound 100, N-(6-(3-(4-fluorophenyl)-1-methyl-1H-pyrazol-4-yl)imidazo[1,2-b]pyridazin-2-yl)-6-hydroxypyrimidine-4-carboxamide] |
| 7.76 | 8.19 | Cc1nc(C(F)(F)F)ccc1C(=O)Nc1cn2nc(-c3cn(C)nc3-c3ccc(F)cc3)ccc2n1 [Compound 95, N-(6-(3-(4-fluorophenyl)-1-methyl-1H-pyrazol-4-yl)imidazo[1,2-b]pyridazin-2-yl)-2-methyl-6-(trifluoromethyl)nicotinamide] |
| 7.82 | 8.49 | O=C(Nc1cn2nc(-c3cn(C4CC4)nc3-c3ccc(F)cc3)ccc2n1)c1ccnc(F)c1 [Compound 104, N-(6-(1-cyclopropyl-3-(4-fluorophenyl)-1H-pyrazol-4-yl)imidazo[1,2-b]pyridazin-2-yl)-2-fluoroisonicotinamide] |
